Assay type in all cases: cell-based
The subject of test [1] is KMS-28BM cells (myeloma cell line). In words: Cell death inducing effect on KMS-28BM cells, trypan blue staining. The settings on record: KMS-28BM (myeloma), cell viability. The protocol:
KMS-28BM cells (myeloma cell line) were cultured under 5% CO2 at 37° C. The culture medium used RPMI-1640 medium with 100 μg/mL penicillin, 100 U/mL streptomycin and fetal bovine serum. KMS-28BM cells were seeded into 96-well plates and incubated with each concentration of the compounds was added, and cell viability was determined by the trypan blue staining.
(§1) For controls, only 0.5% DMSO (diluted in PBS) used to dissolve the compounds was added. For each concentration, each bar line is indicated by an arrow with the sign “n, a, 1, 2, 3, 4, 5, 6, 7, 8, 9, 10, 11, 12” from left to right. The “1, 3, 5, 7, 9, 11” are omitted from the graph, but the sign “1” shall be indicated by an arrow between the signs “a” and “2”, the sign “3” between the signs “2” and “4”, and other odd numbers shall likewise be indicated by arrows between even numbers before and after.
(§2) The sign “n” is the norathyriol (formula (n)) administration group, the sign “a” is the mangiferin 8a (formula (a)) administration group, the sign “1” is the yk-7 (formula (1)) administration group, the sign “2” is the yk-8-1 (formula (2)) administration group, the sign “3” is the yk-8-3 (formula (3)) administration group, the sign “4” is the M7 (formula (4)) administration group, the sign “5” is the M9 (formula (5)) administration group, the sign “6” is the M11 (formula (6)) administration group, the sign “7” is the M12 (formula (7)) administration group, the sign “8” is the M14 (formula (8)) administration group, the sign “9” is the M15 (formula (9)) administration group, the sign “10” is the M16 (formula (10)) administration group, the sign “11” is the M18 (formula (11)) administration group, the sign “12” is the M19 (formula (12)) administration group, respectively. The IC50 values for each compound is also listed in the upper right corner of the figure.

Test [2] deals with L363 cells (myeloma cell line). In words: Cell death inducing effect on L363 cells, trypan blue staining. The protocol:
L363 cells (myeloma cell line) were cultured under 5% CO2 at 37° C. The culture medium used RPMI-1640 medium with 100 μg/mL penicillin, 100 U/mL streptomycin and fetal bovine serum. L363 cells were seeded into 96-well plates and incubated with each concentration of the compounds was added, and cell viability was determined by the trypan blue staining.
as §1, §2

The subject of test [3] is RPMI8226 cells (myeloma cell line). In words: Cell death inducing effect on RPMI8226 cells, trypan blue staining. Here is the method: RPMI8226 cells (myeloma cell line) were cultured under 5% CO2 at 37° C. The culture medium used RPMI-1640 medium with 100 μg/mL penicillin, 100 U/mL streptomycin and fetal bovine serum. RPMI8226 cells were seeded into 96-well plates and incubated with each concentration of the compounds was added, and cell viability was determined by the trypan blue staining.
as §1, §2

Test [4] relates to RPMI8226/B cells (bortezomib-resistant myeloma cell line). Put plainly: Cell death inducing effect on RPMI8226/B cells, trypan blue staining. The settings on record: RPMI8226/B (myeloma; bortezomib resistance), cell viability. The protocol: RPMI8226/B cells (bortezomib-resistant myeloma cell line) were cultured under 5% CO2 at 37° C. The culture medium used RPMI-1640 medium with 100 μg/mL penicillin, 100 U/mL streptomycin and fetal bovine serum. RPMI8226/B cells were seeded into 96-well plates and incubated with each concentration of the compounds was added, and cell viability was determined by the trypan blue staining.
as §1, §2

In test [5] the test system is RPMI1788 cells (human normal B cell line). Put plainly: Cell death inducing effect on RPMI1788 normal B cells, trypan blue staining. The settings on record: RPMI1788 (normal B lymphocyte), cell viability. The protocol: RPMI1788 cells (human normal B cell line) were cultured under 5% CO2 at 37° C. The culture medium used RPMI-1640 medium with 100 μg/mL penicillin, 100 U/mL streptomycin and fetal bovine serum. RPMI1788 cells were seeded into 96-well plates and incubated with each concentration of the compounds was added, and cell viability was determined by the trypan blue staining.
as §1, §2

Test [6] relates to CD20. Put plainly: CD20 expression in KMS-28BM cells, flow cytometry. The settings on record: 10 days, concentration lower than the IC50 (0.005-50 μM), compared to the positive control. Here is the method:
As a control, compounds untreated KMS-28BM cells were seeded in 75 cm^2 flasks and incubated for 10 days at 37° C. and 5% CO2. KMS-28BM cells were seeded into 75 cm^2 flasks and pre-cultured for 4 h. After incubation, KMS-28BM cells were treated with […], 0.05 μM M9, 0.1 μM yk-7, 0.1 μM yk-8-3, 50 μM yk-8-1, 0.5 μM M11, […], 0.005 μM M14, 0.005 μM M15, 0.005 μM M16, 0.5 μM M18, and 0.5 μM M19 at final concentrations, and incubated for 10 days at 37° C. and 5% CO2. This added amount is a concentration lower than the IC50 of the above compounds for KMS-28BM cells. After 10 days of incubation, cells were stained with anti-CD20 antibody, a B cell marker, and CD20 expression was measured using BD LSRFortessa. CCRF-SB cells were used as CD20-positive controls.
Results are shown in FIG. 21, FIG. 22, FIG. 23, and FIG. 24. The horizontal axis represents the expression level of CD20 and the vertical axis represents the number of cells.

Test [7] has as its system CD20. In words: CD20 expression in L363 cells, flow cytometry. The settings on record: 10 days, concentration lower than the IC50 (0.005-50 μM), compared to the positive control. The protocol: As a control, compounds untreated L363 cells were seeded in 75 cm^2 flasks and incubated for 10 days at 37° C. and 5% CO2. L363 cells were seeded into 75 cm^2 flasks and pre-cultured for 4 h. After incubation, L363 cells were treated with 0.1 μM M7, 0.05 μM M9, 0.1 μM yk-7, 0.1 μM yk-8-3, 50 μM yk-8-1, 0.1 μM M11, 0.01 μM M12, 0.005 μM M14, 0.005 μM M15, 0.005 μM M16, 1 μM M18, and 1 μM M19 at final concentrations, and incubated for 10 days at 37° C. and 5% CO2. This added amount is a concentration lower than the IC50 of the above compounds for L363 cells. After 10 days of incubation, cells were stained with anti-CD20 antibody, a B cell marker, and CD20 expression was measured using BD LSRFortessa. CCRF-SB cells were used as CD20-positive controls.
Results are shown in FIG. 29, FIG. 30, FIG. 31, and FIG. 32. The horizontal axis represents the expression level of CD20 and the vertical axis represents the number of cells.
A general note: Flow cytometry measures light scatter and fluorescence of single cells or particles in a stream.

Where [8] appears, read: Homo sapiens, L-363, cell viability.
Where [9] appears, read: Homo sapiens, RPMI-8226, cell viability.

The term IC50 denotes the midpoint of a concentration-inhibition curve. Low values mean greater potency in that assay, high ones weaker potency in that assay.

With “1,2′,3′,4′,6-penta-O-propionylmangiferin [Compound 8a, reference compound]”, the IC50 was 2170 nM in test [1]; 5600 nM in test [2] (cell viability); 7090 nM in test [3] (cell viability); 892 nM in test [4]; above 100000 nM in test [5].
For `CCC(=O)OC[C@H]1O[C@@H](c2c(OC(=O)CC)cc3oc4cc(OC(=O)CC)c(OC(=O)CC)cc4c(=O)c3c2OC(=O)CC)[C@H](OC(=O)CC)[C@@H](OC(=O)CC)[C@@H]1OC(=O)CC` [Compound M7, 1,3,2′,3′,4′,6,6′,7-octa-O-propionylmangiferin], the IC50 is 770 nM in test [1]; 5100 nM in test [2] (setting [8]); 6420 nM in test [3] (setting [9]); 251 nM in test [4] (Homo sapiens, RPMI-8226); above 100000 nM in test [5] (Homo sapiens, RPMI-1788). The CD20 expression level entry in the test on CD20 [6] and in the test on CD20 [7] was “significantly increased” throughout.
Regarding `CCC(=O)OC[C@H]1O[C@@H](c2c(O)cc3oc4cc(O)c(O)cc4c(=O)c3c2O)[C@H](OC(=O)CC)[C@@H](OC(=O)CC)[C@@H]1OC(=O)CC` [Compound M9, 2′,3′,4′,6′-tetra-O-propionylmangiferin], the IC50 is 210 nM in test [1]; 620 nM in test [2] (setting [8]); 696 nM in test [3] (setting [9]); 69 nM in test [4] (Homo sapiens, RPMI-8226); above 100000 nM in test [5] (Homo sapiens, RPMI-1788). In addition, the CD20 expression level entry in the test with CD20 [6] and in the test with CD20 [7] was “significantly increased” in each case.
On to `CCCC(=O)OC[C@H]1O[C@@H](c2c(OC(=O)CCC)cc3oc4cc(OC(=O)CCC)c(OC(=O)CCC)cc4c(=O)c3c2OC(=O)CCC)[C@H](OC(=O)CCC)[C@@H](OC(=O)CCC)[C@@H]1OC(=O)CCC` [Compound M11, 1,3,2′,3′,4′,6,6′,7-octa-O-butyrylmangiferin], for which the IC50 in test [1] is 1910 nM; in test [2] (cell viability), 970 nM; in test [3] (cell viability) it was 3210 nM; in test [4] it was 169 nM; in test [5], above 100000 nM. Also, the CD20 expression level result in the test on CD20 [6] and in the test with CD20 [7] was “significantly increased” throughout.
On to `CCCC(=O)OC[C@H]1O[C@@H](c2c(O)cc3oc4cc(O)c(O)cc4c(=O)c3c2OC(=O)CCC)[C@H](OC(=O)CCC)[C@@H](OC(=O)CCC)[C@@H]1OC(=O)CCC` [Compound M12, 1,2′,3′,4′,6-penta-O-butyrylmangiferin], for which the IC50 amounted to 210 nM in test [1]; 89 nM in test [2] (setting [8]); 291 nM in test [3] (setting [9]); 91 nM in test [4] (Homo sapiens, RPMI-8226); 75000 nM in test [5] (Homo sapiens, RPMI-1788). In addition, the CD20 expression level result with CD20 [6] and with CD20 [7] was “significantly increased” throughout.
As to `CCCC(=O)OC[C@H]1O[C@@H](c2c(O)cc3oc4cc(O)c(O)cc4c(=O)c3c2O)[C@H](OC(=O)CCC)[C@@H](OC(=O)CCC)[C@@H]1OC(=O)CCC` [Compound M14, 2′,3′,4′,6′-tetra-O-butyrylmangiferin], the IC50 worked out at 80 nM in test [1]; 29 nM in test [2] (setting [8]); 121 nM in test [3] (setting [9]); 51 nM in test [4] (Homo sapiens, RPMI-8226); 69000 nM in test [5] (Homo sapiens, RPMI-1788). In addition, the CD20 expression level result in the test with CD20 [6] and with CD20 [7] was “significantly increased” throughout.
With `CC(C)(C)C(=O)OC[C@H]1O[C@@H](c2c(O)cc3oc4cc(O)c(O)cc4c(=O)c3c2O)[C@H](OC(=O)C(C)(C)C)[C@@H](OC(=O)C(C)(C)C)[C@@H]1OC(=O)C(C)(C)C` [Compound M15, 2′,3′,4′,6′-tetra-O-pivaloylmangiferin], the IC50 in test [1] was 170 nM; in test [2] (setting [8]), 91 nM; in test [3] (setting [9]), 183 nM; in test [4] (Homo sapiens, RPMI-8226) it was 71 nM; in test [5] (Homo sapiens, RPMI-1788), 71000 nM. For the same compound, the CD20 expression level result in the test with CD20 [6] and in the test with CD20 [7] was “significantly increased” in each case.
For `CCCCO[C@@H]1[C@@H](OCCCC)[C@H](c2c(O)cc3oc4cc(O)c(O)cc4c(=O)c3c2O)O[C@H](COC(=O)CCC)[C@H]1OC(=O)CCC` [Compound M16, 2′,3′-di-O-butyl-4′,6′-di-O-butyrylmangiferin], the IC50 stood at 70 nM in test [1]; 21 nM in test [2] (setting [8]); 91 nM in test [3] (setting [9]); 42 nM in test [4] (Homo sapiens, RPMI-8226); 58000 nM in test [5] (Homo sapiens, RPMI-1788). Besides, the CD20 expression level entry in the test with CD20 [6] and with CD20 [7] was “significantly increased” each time.
For the compound `O=c1c2cc(O)c(O)cc2oc2cc(O)cc(OCCO)c12` [Compound M18, 3,6,7-trihydroxy-1-(2-hydroxyethoxy)-9H-xanthen-9-one], the IC50 is 890 nM in test [1]; 4700 nM in test [2] (setting [8]); 6870 nM in test [3] (setting [9]); 486 nM in test [4] (Homo sapiens, RPMI-8226); above 100000 nM in test [5] (Homo sapiens, RPMI-1788). The CD20 expression level entry with CD20 [6] and in the test with CD20 [7] was “significantly increased” each time.
As for `C=CCOc1cc(O)cc2oc3cc(O)c(O)cc3c(=O)c12` [Compound M19, 1-allyloxy-3,6,7-trihydroxy-9H-xanthen-9-one], the IC50 in test [1] is 2100 nM; in test [2] (setting [8]), 7200 nM; in test [3] (setting [9]), 9540 nM; in test [4] (Homo sapiens, RPMI-8226), 758 nM; in test [5] (Homo sapiens, RPMI-1788) it was above 100000 nM. The CD20 expression level entry with CD20 [6] and with CD20 [7] was “significantly increased” throughout.
`O=c1c2cc(O)c(O)cc2oc2cc(O)cc(O)c12` [norathyriol, reference compound]: the IC50 was determined as 1500 nM in test [1]; 5800 nM in test [2] (setting [8]); 8870 nM in test [3] (setting [9]); 632 nM in test [4] (Homo sapiens, RPMI-8226).

Source of the values: patent US20260200903A1, “PHARMACEUTICAL COMPOSITION FOR AMELIORATING MALIGNANT DISEASES” (KINKI UNIVERSITY, priority 2020, published 2026).
